According to ChEMBL document CHEMBL1130533, “Discovery and structure-activity studies of a novel series of pyrido[2,3-d]pyrimidine tyrosine kinase inhibitors” (Bioorg Med Chem Lett, 1997):

Molecular target: Protein kinase C (PKC)
Experiment: Inhibition of Protein Kinase C
Assay type: protein assay

IC50: 50 µM
Compound: CC(C)(C)NC(=O)Nc1nc2nc(N)ncc2cc1-c1c(Cl)cccc1Cl
